pIC50: −log10 of the molar value. Where only a bound is given, the exact number is not on record here.

The target in one experiment is T1, Neutrophil elastase (Homo sapiens, UniProt P08246).
T1 sequence (P08246 whole entry): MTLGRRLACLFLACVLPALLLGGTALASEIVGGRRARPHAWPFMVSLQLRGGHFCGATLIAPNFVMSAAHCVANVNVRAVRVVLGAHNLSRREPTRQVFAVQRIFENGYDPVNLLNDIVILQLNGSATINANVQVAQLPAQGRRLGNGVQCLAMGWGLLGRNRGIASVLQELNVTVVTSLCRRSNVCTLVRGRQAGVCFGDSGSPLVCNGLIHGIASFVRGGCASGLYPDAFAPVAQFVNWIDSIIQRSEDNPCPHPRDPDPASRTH
The experiment is described as follows: Inhibitory activity against human leukocyte elastase protease(HLE).

The next experiment concerns the target Chymotrypsinogen B (Homo sapiens, UniProt P17538). Description: Inhibitory activity against alpha-chymotrypsin.
The target in the next experiment is Cathepsin B (Homo sapiens, UniProt P07858). The experiment is described as follows: Inhibitory activity against Cathepsin B.
Experiment [1] addresses T2, Capsid scaffolding protein (Human cytomegalovirus (strain AD169) (HHV-5) (Human herpesvirus 5), UniProt P16753).
T2 sequence (P16753 whole entry): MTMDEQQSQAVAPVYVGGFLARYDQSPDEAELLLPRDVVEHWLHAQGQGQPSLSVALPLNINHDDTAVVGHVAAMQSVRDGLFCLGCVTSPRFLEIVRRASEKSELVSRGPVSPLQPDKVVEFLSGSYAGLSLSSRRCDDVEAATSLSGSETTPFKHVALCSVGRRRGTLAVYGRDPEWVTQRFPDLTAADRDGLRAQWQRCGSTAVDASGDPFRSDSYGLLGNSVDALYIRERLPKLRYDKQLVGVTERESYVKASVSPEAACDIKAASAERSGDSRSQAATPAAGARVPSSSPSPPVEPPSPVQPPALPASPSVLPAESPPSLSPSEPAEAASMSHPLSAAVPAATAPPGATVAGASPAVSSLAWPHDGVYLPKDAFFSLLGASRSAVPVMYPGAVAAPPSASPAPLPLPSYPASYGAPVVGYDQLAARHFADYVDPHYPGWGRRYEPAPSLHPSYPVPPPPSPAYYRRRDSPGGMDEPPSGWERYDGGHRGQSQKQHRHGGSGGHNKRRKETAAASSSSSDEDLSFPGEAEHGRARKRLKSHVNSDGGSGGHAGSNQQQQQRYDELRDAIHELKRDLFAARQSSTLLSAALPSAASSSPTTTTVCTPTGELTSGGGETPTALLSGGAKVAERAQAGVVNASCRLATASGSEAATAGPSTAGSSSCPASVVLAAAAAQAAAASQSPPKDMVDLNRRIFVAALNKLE
Description: Inhibitory activity against human cytomegalovirus (HCMV) protease. Also noted: species or system Human herpesvirus 5 strain AD169.

Sequence of Chymotrypsinogen B (P17538 34-164 limits assumed, other chains not shown): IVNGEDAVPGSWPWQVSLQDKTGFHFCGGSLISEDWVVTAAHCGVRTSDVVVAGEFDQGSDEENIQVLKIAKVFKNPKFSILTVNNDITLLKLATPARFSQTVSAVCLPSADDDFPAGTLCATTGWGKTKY
Sequence of Chymotrypsinogen B (P17538 167-263 limits assumed, other chains not shown): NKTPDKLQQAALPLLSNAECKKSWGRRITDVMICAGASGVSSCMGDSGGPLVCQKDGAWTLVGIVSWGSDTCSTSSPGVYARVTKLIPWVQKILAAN

`CC(C)C[C@@H](COC1CC(=O)N1C(=O)NCc1ccccc1)NC(=O)[C@@H](NC(=O)OC(C)(C)C)C(C)(C)C` (stereo partly drawn): the pIC50 at Neutrophil elastase is below 4.12; at Chymotrypsinogen B, 5.08; at Cathepsin B, below 4.12.

Turning to `CC(C)C[C@@H](COC1CC(=O)N1C(=O)N[C@H](C)c1ccccc1)NC(=O)[C@@H](NC(=O)OC(C)(C)C)C(C)(C)C` (stereo partly drawn), the pIC50 is below 4.12 on Neutrophil elastase, below 4.12 at Chymotrypsinogen B, below 4.12 against Cathepsin B and 5.85 in experiment [1].

For `C[C@@H](NC(=O)N1C(=O)CC1SCCc1ccccc1)c1ccccc1` (stereo partly drawn), the pIC50 against Neutrophil elastase, at Chymotrypsinogen B and at Cathepsin B was below 4.12 in each case.

In the case of `C[C@@H](NC(=O)N1C(=O)CC1SCc1ccccn1)c1ccccc1` (stereo partly drawn), the pIC50 against Neutrophil elastase, against Chymotrypsinogen B and against Cathepsin B was below 4.12 each time.

On to `C[C@@H](NC(=O)N1C(=O)CC1SCc1ccc(CC(=O)OC(C)(C)C)cc1)c1ccccc1` (stereo partly drawn), for which the pIC50 was below 4.12 against Neutrophil elastase, below 4.12 against Chymotrypsinogen B, below 4.12 at Cathepsin B and 4.12 in experiment [1].

On to `CC(C)C[C@@H](COC1CC(=O)N1C(=O)N[C@@H](C)c1ccccc1)NC(=O)[C@@H](NC(=O)OC(C)(C)C)C(C)(C)C` (stereo partly drawn), for which the pIC50 is below 4.12 against Neutrophil elastase, below 4.12 at Chymotrypsinogen B, below 4.12 against Cathepsin B and 6.52 in experiment [1].

On to `C[C@@H](NC(=O)N1C(=O)CC1SCc1cccnc1)c1ccccc1` (stereo partly drawn), for which the pIC50 against Neutrophil elastase, against Chymotrypsinogen B and against Cathepsin B was below 4.12 throughout.

Take `C[C@@H](NC(=O)N1C(=O)CC1Sc1ccccc1)c1ccccc1` (stereo partly drawn): the pIC50 on Neutrophil elastase, against Chymotrypsinogen B and at Cathepsin B was below 4.12 each time.

In the case of `C[C@@H](NC(=O)N1C(=O)CC1SCc1ccncc1)c1ccccc1` (stereo partly drawn), the pIC50 against Neutrophil elastase, against Chymotrypsinogen B and on Cathepsin B was below 4.12 in each case.

Take `C[C@@H](NC(=O)N1C(=O)CC1SCc1ccccc1)c1ccccc1` (stereo partly drawn): the negative-log IC50 (pIC50) on Neutrophil elastase was below 4.12; on Chymotrypsinogen B, below 4.12; against Cathepsin B, below 4.12; in experiment [1], 5.62.

`CC(C)C[C@@H](COC1CC(=O)N1)NC(=O)[C@@H](NC(=O)OC(C)(C)C)C(C)(C)C` (stereo partly drawn) gave a pIC50 in experiment [1] below 3.52.

With `CC[C@@H](NC(=O)N1C(=O)[C@@H](C)[C@@H]1SCc1ccccn1)c1ccccc1`, the pIC50 was above 6.82 against Neutrophil elastase, 5.77 against Chymotrypsinogen B and below 4.12 against Cathepsin B.

In the case of `CC[C@H](NC(=O)N1C(=O)CC1SC[C@H](CC(C)C)NC(=O)[C@@H](NC(=O)CC(C)(C)C)C(C)(C)C)c1ccccc1` (stereo partly drawn), the pIC50 on Neutrophil elastase is below 4.12; on Chymotrypsinogen B it was below 4.12; at Cathepsin B it was below 4.12; in experiment [1], 7.15.

In the case of `CC(C)C[C@@H](CSC1CC(=O)N1C(=O)NCc1ccccc1)NC(=O)[C@@H](NC(=O)OC(C)(C)C)C(C)(C)C` (stereo partly drawn), the pIC50 against Neutrophil elastase was below 4.12; at Chymotrypsinogen B, 6.10; on Cathepsin B, below 4.12.

In the case of `CC[C@@H](NC(=O)N1C(=O)CC1SCc1ccccn1)c1ccccc1` (stereo partly drawn), the pIC50 at Neutrophil elastase, at Chymotrypsinogen B and against Cathepsin B was below 4.12 in each case.

In the case of `O=C1CC(SCc2ccccn2)N1C(=O)NCCOCc1ccccc1` (stereo not drawn), the pIC50 is below 4.12 on Neutrophil elastase, below 4.12 against Chymotrypsinogen B, below 4.12 against Cathepsin B and 5.19 in experiment [1].

As for `O=C1CC(SCc2ccccn2)N1C(=O)N[C@H](CO)c1ccccc1` (stereo partly drawn), the pIC50 against Neutrophil elastase, against Chymotrypsinogen B and against Cathepsin B was below 4.12 in each case.

With `C[C@@H](NC(=O)N1C(=O)CC1SCC(=O)c1ccccc1)c1ccccc1` (stereo partly drawn), the pIC50 at Neutrophil elastase, against Chymotrypsinogen B and at Cathepsin B was below 4.12 throughout.

The values are drawn from ChEMBL document CHEMBL1130829, “Inhibition of human cytomegalovirus protease N(o) with monocyclic beta-lactams” (Bioorg Med Chem Lett, 1998).
